Measured values reported in article PMC9855133, “Ligand Binding Properties of Odorant-Binding Protein OBP5 from Mus musculus” (Biology, 2022).

T1: mOBP5 (Mus musculus, UniProt Q9D3H2)
T1 construct: composed of an N-terminal His6-tag, followed by mOBP5 (Ala17-Glu163); made in house; host or cells: E. coli M15 [pREP4]
T1 sequence (Q9D3H2 17-163): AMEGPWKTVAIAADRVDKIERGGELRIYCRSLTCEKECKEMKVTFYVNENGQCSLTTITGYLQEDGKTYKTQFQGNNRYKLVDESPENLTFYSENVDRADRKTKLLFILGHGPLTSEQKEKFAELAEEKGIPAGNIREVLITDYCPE


Legend:
mOBP5 [1] = molecular target: T1, mOBP5; test: Competitive fluorescence binding assay (displacement of NPN from mOBP5); conditions: for IC50 / Kd: 2 μM mOBP5, 10 μM NPN; for IC50: 20 °C, for very weak ligands an arbitrary value of 200 μM was assigned, read-out: IC50 (µM) Fluo: concentration of competitor ligand causing a decrease of NPN fluorescence of half-maximal intensity; for Kd: calculated as Kd = [IC50]/(1 + [L]/Kd NPN), average of three experiments, read-out: Kd (µM) Fluo: dissociation constant determined by fluorescence; for fluorescence intensity of the mOBP5-NPN complex in the presence of odorant: competitive curves, Figure 3C
Experimental: (§1) Competitive ligand binding experiments were performed using N-phenyl-1-naphthylamine (NPN) as a fluorescent probe as previously described. All measurements were conducted at 20 °C using a Cary Eclipse spectrofluorimeter (Agilent Technologies, Santa Clara, CA, United States) equipped with a Peltier temperature-control unit with a 1 cm light path, quartz cuvette, and 5 nm slits for both excitation and emission. […] The excitation wavelength of NPN was 337 nm, and the fluorescence emission was recorded between 350 and 600 nm. The value of the dissociation constant (Kd) NPN was calculated using SigmaPlot 12.5 software (Systat Software, Inc., San Jose, CA, USA), as previously described.
Competitive binding assays were carried out with 2 μM mOBP5 incubated with 10 μM NPN, as previously described. After the addition of the competitor compound and the stabilization of the signal (3–4 min), the fluorescence spectrum was recorded. The IC50 value is the concentration of odorant, which causes a fluorescence decrease in half-maximal intensity. The IC50 values were calculated using SigmaPlot software. Dissociation constants (Kd) for odorant competitors were calculated as Kd = [IC50]/(1 + [L]/Kd NPN), with [L] being the free fluorophore concentration and Kd being the OBP-fluorophore complex dissociation constant. The reported Kd values are the average of three measurements performed in three independent experiments.

mOBP5 [2] = molecular target: T1, mOBP5; test: Isothermal titration microcalorimetry (ITC); assay type: binding; conditions: 25 °C, 25 μM mOBP5, 250 μM odorant, phosphate buffer pH 7.5; for Ka (ITC): association constant determined by ITC: in M-1 (unit assumed); for Kd: read-out: Kd (µM) ITC: dissociation constant determined by ITC (1/Ka)
Experimental: Isothermal titration microcalorimetry (ITC) experiments were carried out at 25 °C with a VP-ITC microcalorimeter (Malvern Panalytical, Palaiseau, France) as previously described. Before initiating the titration run, mOBP5 solutions (25 μM in 50 mM phosphate buffer, pH 7.5) were thoroughly degassed under vacuum. Ligand solutions (250 μM in 50 mM phosphate buffer, pH 7.5) were injected into one 3 µL aliquot, then 26 successive 10 μL aliquots. The duration of each injection was 20 s with a 210 s recovery time between injections. Heats of dilution determined in the absence of mOBP5 were subtracted from the titration data prior to curve fitting. Thermodynamic parameters were obtained by fitting the values to a single site binding model through nonlinear regression using Microcal Origin® software.

mOBP5 [3] = molecular target: T1, mOBP5; test: Fluorescence titration of mOBP5 with the probe NPN; assay type: binding; conditions: 2 µM mOBP5, 50 mM sodium phosphate pH 7.5, 20 °C, excitation 337 nm; read-out: dissociation constant (Kd) of NPN
Experimental: as §1

[4] = molecular target: the molecule itself; test: SEC; calibrated Superdex 75 10/300 GL, room temperature, 100 mM potassium phosphate, 150 mM NaCl, pH 7.5, 1 mL/min; purified mOBP5 at 0.5 mg/mL

Molecule	IC50 (mOBP5 [1]) [µM]	Kd (mOBP5 [1]) [µM]	N ITC: binding stoichiometry per monomer determined by ITC (mOBP5 [2])	Ka (ITC): association constant determined by ITC (mOBP5 [2])	Kd (mOBP5 [2]) [µM]	fluorescence intensity of the mOBP5-NPN complex in the presence of odorant (mOBP5 [1])	Kd (mOBP5 [3]) [µM]	stoichiometry N [4]
CC(C)=CCCC(C)=CC=O (mixture of isomers) [citral]	2.5	0.61	0.65	1.3E+07	0.076	–	–	–
CCCCCCO [1-hexanol]	40	–	–	–	–	–	–	–
COc1nccnc1CC(C)C [3-iso-butyl-2-methoxy-pyrazine]	7.2	1.3	–	–	–	–	–	–
COc1ccc(C=O)cc1 [4-methoxy-benzaldehyde]	40	–	–	–	–	–	–	–
c1ccc(Nc2cccc3ccccc23)cc1 [NPN, N-phenyl-1-naphthylamine]	–	–	–	–	–	–	3.33 ± 0.17	–
CC12CCC(CC1=O)C2(C)C (stereo not drawn) [camphor]	10.4	1.6	–	–	–	–	–	–
CC12CCC(CC1)C(C)(C)O2 [cineole]	40	–	–	–	–	–	–	–
CCCC(=O)OCC [ethyl butyrate]	40	–	–	–	–	–	–	–
CC(C=O)Cc1ccc(C(C)(C)C)cc1 (stereo not drawn) [lilialdehyde]	1.4	0.38	–	–	–	drastically reduced	–	–
Cc1ccc(C(C)C)c(O)c1 [thymol]	40	–	–	–	–	–	–	–
Mus musculus odorant-binding protein OBP5 (mOBP5), recombinant His6-tagged (natural protein, UniProt Q9D3H2 17-163, looked up, Expressed from pQE31 (BamHI/HindIII); also called mOBP1a; source: E. coli M15 [pREP4], purified (HisTrap Ni2+-chelating column, dialysis); not shown: His6, N-terminal, kept) AMEGPWKTVAIAADRVDKIERGGELRIYCRSLTCEKECKEMKVTFYVNENGQCSLTTITGYLQEDGKTYKTQFQGNNRYKLVDESPENLTFYSENVDRADRKTKLLFILGHGPLTSEQKEKFAELAEEKGIPAGNIREVLITDYCPE	–	–	–	–	–	–	–	2

Further lines, with some results ahead:

IC50 (mOBP5 [1]) [µM]	Kd (mOBP5 [1]) [µM]	N ITC: binding stoichiometry per monomer determined by ITC (mOBP5 [2])	Ka (ITC): association constant determined by ITC (mOBP5 [2])	Kd (mOBP5 [2]) [µM]	fluorescence intensity of the mOBP5-NPN complex in the presence of odorant (mOBP5 [1])	Kd (mOBP5 [3]) [µM]	Molecule	stoichiometry N [4]
1.1	0.28	–	–	–	drastically reduced	–	C=C(C)C1CC=C(C)C(=O)C1 (single isomer, unassigned; (-)) [(-)-carvone]	–
2.4	0.59	–	–	–	–	–	CCCCCCCO [1-heptanol]	–
1.1	0.29	0.71	3.6E+07	0.028	drastically reduced	–	CCCCCCCCO [1-octanol]	–
1.2	0.31	–	–	–	drastically reduced	–	CCCCCCCCC(C)=O [2-decanone]	–
1	0.28	0.47	8.7E+06	0.115	drastically reduced	–	C=C(C)[C@H]1CC=C(C)C(=O)C1 [(+)-carvone]	–
0.7	0.19	0.71	2.5E+07	0.04	drastically reduced	–	CC(C)=CCC/C(C)=C/CO [geraniol]	–
2.5	0.6	0.87	8.6E+06	0.116	–	–	CC(=O)OCCC(C)C [isoamyl acetate]	–
1.1	0.3	–	–	–	drastically reduced	–	C=CC(C)(O)CCC=C(C)C (stereo not drawn) [linalool]	–
1.5	0.38	–	–	–	drastically reduced	–	CC1CCC(C(C)C)C(O)C1 (stereo not drawn) [menthol]	–
0.8	0.23	0.58	1.8E+07	0.055	drastically reduced	–	CC(C)[C@@H]1CC[C@@H](C)CC1=O [menthone]	–
1.3	0.34	–	–	–	drastically reduced	–	CCCCCCCC=O [octanal]	–
0.9	0.24	–	–	–	drastically reduced	–	CC1=CCC2CC1C2(C)C (stereo not drawn) [α-pinene]	–
3	0.71	–	–	–	–	–	CC(=O)/C=C/C1=C(C)CCCC1(C)C [β-ionone]	–
2.4	0.58	–	–	–	–	–	CCCCCCC1CCC(=O)O1 (stereo not drawn) [γ-decalactone]	–
